# Measured values reported in patent US4604239A, “Antibiotics” (Eli Lilly and Company, priority 1985, dated 1986).
# Where two headings read alike, the source gives them in different places.
# Tests used:
# Hemophilus influenzae = assay: agar-dilution MIC; type: cell-based; conditions: Table 17
# Bacteroides fragilis = assay: agar-dilution MIC; type: cell-based; conditions: Table 14
# Source text: (§1) The agar-dilution procedure described by the International Collaborative study (ICS) group was used to determine the minimum inhibitory concentrations (MIC's).
# [1] = system: Staphylococcus epidermidis; assay: agar-dilution MIC; type: cell-based; conditions: Table 17
# Source text: as §1
# Streptococcus pneumoniae = assay: agar-dilution MIC; type: cell-based; conditions: Streptococcus pneumoniae Park I; Table 17
# Source text: as §1
# Streptococcus pyogenes = assay: agar-dilution MIC; type: cell-based; conditions: Streptococcus pyogenes C203; Table 17
# Source text: as §1
# [2] = system: Streptococcus sp. (Group D); assay: agar-dilution MIC; type: cell-based; conditions: Table 17
# Source text: as §1
# [3] = system: Bacteroides thetaiotaomicron; type: cell-based; conditions: Bacteroides thetaiotaomicron 1438; Table 14
# Source text: as §1
# Propionibacterium acnes = assay: agar-dilution MIC; type: cell-based; conditions: Propionibacterium acnes 79; Table 14
# Source text: Antibiotic A41030 factors A, B and C have also been tested and found to be active against a genus of anaerobic bacteria identified as Propionibacterium acnes.
# Clostridium difficile = type: cell-based
# Clostridium perfringens = type: cell-based; conditions: Clostridium perfringens 81; Table 14
# Clostridium septicum = assay: agar-dilution MIC; type: cell-based; conditions: Clostridium septicum 1128; Table 14
# Eubacterium aerofaciens = assay: agar-dilution MIC; type: cell-based; conditions: Eubacterium aerofaciens 1235; Table 14
# [4] = system: Peptococcus asaccharolyticus; assay: agar-dilution MIC; type: cell-based; conditions: Peptococcus asaccharolyticus 1302; Table 14
# Protocol: The MIC values were determined by the agar-dilution method, and are recorded in Table 15, which follows.
# [5] = system: Peptostreptococcus anaerobius; assay: agar-dilution MIC; type: cell-based; conditions: Peptostreptococcus anaerobius 1428; Table 14
# [6] = system: Peptostreptococcus intermedius; assay: agar-dilution MIC; type: cell-based; conditions: Peptostreptococcus intermedius 1264; Table 14
# [7] = system: Bacteroides melaninogenicus; assay: agar-dilution MIC; type: cell-based; conditions: Table 14
# Fusobacterium symbiosum = assay: agar-dilution MIC; type: cell-based; conditions: Fusobacterium symbiosum 1470; Table 14
# [8] = system: Fusobacterium necrophorum; assay: agar-dilution MIC; type: cell-based; conditions: Fusobacterium necrophorum 6054A; Table 14
# Klebsiella pneumoniae = assay: agar-dilution MIC; type: cell-based; conditions: Klebsiella pneumoniae X26; Table 17
# Source text: (§2) The results after reading the which follows.
# electrometric titration = type: physicochemical; conditions: electrometric titration in 66% dimethylformamide in water
# Source text: Antibiotic A41030 factor A is a white, crystalline solid.
# solubility = type: physicochemical
# Bacteroides corrodens = assay: agar-dilution MIC; type: cell-based; conditions: Bacteroides corrodens 1874; Table 14
# Bacteroides vulgatis = assay: agar-dilution MIC; type: cell-based; conditions: Bacteroides vulgatis 1211; Table 14
# Peptococcus prevoti = assay: agar-dilution MIC; type: cell-based; conditions: Peptococcus prevoti 1281; Table 14
# Staphylococcus aureus = assay: agar-dilution MIC; type: cell-based; conditions: Staphylococcus aureus S13E; Table 17
# Escherichia coli = assay: agar-dilution MIC; type: cell-based; conditions: Escherichia coli TEM; Table 17
# Source text: as §2
# [9] = Staphylococcus epidermidis EPI1
# [10] = Staphylococcus epidermidis EPI2
# [11] = Clostridium difficile 78, Table 16
# [12] = Clostridium difficile 107B, Table 16
# [13] = Clostridium difficile 111F, Table 16
# [14] = Clostridium difficile 1153, Table 16
# [15] = Clostridium difficile 2634, Table 16
# [16] = Clostridium difficile 3424-5B, Table 16
# [17] = Clostridium difficile 3816, Table 16
# [18] = Clostridium difficile 6890, Table 16
# [19] = Clostridium difficile 8484, Table 16
# [20] = Clostridium difficile A-194, Table 16
# [21] = Clostridium difficile A-195, Table 16
# [22] = Clostridium difficile A-196, Table 16
# [23] = Clostridium difficile A-279, Table 16
# [24] = Clostridium difficile A-281, Table 16
# [25] = Clostridium difficile WAL-2112, Table 16
# [26] = Clostridium difficile WAL-3657, Table 16
# [27] = Clostridium difficile WAL-4268, Table 16
# [28] = Bacteroides melaninogenicus 2736
substance,measurement,setting,value
A41030 factor G,MIC,Hemophilus influenzae; Haemophilus influenzae 76,32 µg/mL
same,MIC,Hemophilus influenzae; Haemophilus influenzae C.L.,32 µg/mL
same,MIC,Bacteroides fragilis; Bacteroides fragilis 111,32 µg/mL
same,MIC,Bacteroides fragilis; Bacteroides fragilis 1877,32 µg/mL
same,MIC,Bacteroides fragilis; Bacteroides fragilis 1936B,64 µg/mL
same,MIC,[1]; [9],0.5 µg/mL
same,MIC,[1]; [10],0.5 µg/mL
same,MIC,Streptococcus pneumoniae,2 µg/mL
same,MIC,Streptococcus pyogenes,2 µg/mL
same,MIC,[2]; Streptococcus sp. Group D 9960,4 µg/mL
same,MIC,[2]; Streptococcus sp. Group D X66,4 µg/mL
same,MIC,[3],64 µg/mL
same,MIC,Propionibacterium acnes,1.0 µg/mL
same,MIC,Clostridium difficile; [11],1.0 µg/mL
same,MIC,Clostridium difficile; [12],1.0 µg/mL
same,MIC,Clostridium difficile; [13],1.0 µg/mL
same,MIC,Clostridium difficile; [14],1.0 µg/mL
same,MIC,Clostridium difficile; [15],1.0 µg/mL
same,MIC,"Clostridium difficile; Clostridium difficile 2994, Table 14",2 µg/mL
same,MIC,Clostridium difficile; [16],1.0 µg/mL
same,MIC,Clostridium difficile; [17],1.0 µg/mL
same,MIC,"Clostridium difficile; Clostridium difficile 3950D, Table 16",1.0 µg/mL
same,MIC,Clostridium difficile; [18],1.0 µg/mL
same,MIC,Clostridium difficile; [19],1.0 µg/mL
same,MIC,Clostridium difficile; [20],1.0 µg/mL
same,MIC,Clostridium difficile; [21],1.0 µg/mL
same,MIC,Clostridium difficile; [22],1.0 µg/mL
same,MIC,Clostridium difficile; [23],1.0 µg/mL
same,MIC,Clostridium difficile; [24],1.0 µg/mL
same,MIC,Clostridium difficile; [25],1.0 µg/mL
same,MIC,Clostridium difficile; [26],1.0 µg/mL
same,MIC,Clostridium difficile; [27],1.0 µg/mL
same,MIC,Clostridium perfringens,2 µg/mL
same,MIC,Clostridium septicum,2 µg/mL
same,MIC,Eubacterium aerofaciens,2 µg/mL
same,MIC,[4],1.0 µg/mL
same,MIC,[5],≤ 0.5 µg/mL
same,MIC,[6],2 µg/mL
same,MIC,[7]; [28],64 µg/mL
same,MIC,Fusobacterium symbiosum,2 µg/mL
same,MIC,[8],2 µg/mL
same,MIC,Klebsiella pneumoniae,64 µg/mL
same,possibly additional pKa's,electrometric titration,> 10.5
same,solubility (solvents),solubility,soluble in the same solvents as is factor A
same,MIC,Bacteroides corrodens,32 µg/mL
same,MIC,Bacteroides vulgatis,64 µg/mL
same,MIC,Peptococcus prevoti,2 µg/mL
A41030 factor D,MIC,Staphylococcus aureus,0.25 µg/mL
same,MIC,Hemophilus influenzae; Haemophilus influenzae 76,8 µg/mL
same,MIC,Hemophilus influenzae; Haemophilus influenzae C.L.,8 µg/mL
same,MIC,Bacteroides fragilis; Bacteroides fragilis 111,32 µg/mL
same,MIC,Bacteroides fragilis; Bacteroides fragilis 1877,32 µg/mL
same,MIC,Bacteroides fragilis; Bacteroides fragilis 1936B,32 µg/mL
same,MIC,[1]; [9],0.25 µg/mL
same,MIC,[1]; [10],1 µg/mL
same,MIC,Streptococcus pneumoniae,0.5 µg/mL
same,MIC,Streptococcus pyogenes,0.5 µg/mL
same,MIC,[2]; Streptococcus sp. Group D 9960,1 µg/mL
same,MIC,[2]; Streptococcus sp. Group D X66,1 µg/mL
same,MIC,[3],32 µg/mL
same,MIC,Propionibacterium acnes,0.25 µg/mL
same,MIC,Clostridium difficile; [11],≤ 0.25 µg/mL
same,MIC,Clostridium difficile; [12],≤ 0.25 µg/mL
same,MIC,Clostridium difficile; [13],≤ 0.25 µg/mL
same,MIC,Clostridium difficile; [14],1.0 µg/mL
same,MIC,Clostridium difficile; [15],0.5 µg/mL
same,MIC,Clostridium difficile; [16],0.5 µg/mL
same,MIC,Clostridium difficile; [17],0.5 µg/mL
same,MIC,Clostridium difficile; [18],0.5 µg/mL
same,MIC,Clostridium difficile; [19],≤ 0.25 µg/mL
same,MIC,Clostridium difficile; [20],≤ 0.25 µg/mL
same,MIC,Clostridium difficile; [21],≤ 0.25 µg/mL
same,MIC,Clostridium difficile; [22],0.5 µg/mL
same,MIC,Clostridium difficile; [23],≤ 0.25 µg/mL
same,MIC,"Clostridium difficile; Clostridium difficile A-280, Table 16",≤ 0.25 µg/mL
same,MIC,Clostridium difficile; [24],0.5 µg/mL
same,MIC,Clostridium difficile; [25],≤ 0.25 µg/mL
same,MIC,Clostridium difficile; [26],≤ 0.25 µg/mL
same,MIC,Clostridium difficile; [27],≤ 0.25 µg/mL
same,MIC,Clostridium perfringens,0.5 µg/mL
same,MIC,Clostridium septicum,0.25 µg/mL
same,MIC,Eubacterium aerofaciens,0.5 µg/mL
same,MIC,[5],0.5 µg/mL
same,MIC,[6],1.0 µg/mL
same,MIC,[7]; Bacteroides melaninogenicus 1856/28,> 64 µg/mL
same,MIC,[7]; [28],0.5 µg/mL
same,MIC,Fusobacterium symbiosum,0.5 µg/mL
same,MIC,Escherichia coli,64 µg/mL
same,possibly additional pKa's,electrometric titration,> 10
same,solubility (solvents),solubility,soluble in the same solvents as factor A
same,MIC,Bacteroides corrodens,32 µg/mL
same,MIC,Bacteroides vulgatis,32 µg/mL
same,MIC,Peptococcus prevoti,0.25 µg/mL
